Reference: patent US20230373985A1 (Origenis Gmbh, priority 2020, published 2023)

Assays:
[1] = target: T1, wt human JAK1, catalytic site (Homo sapiens, UniProt P23458); test: HTRF KinEASE assay, JAK1; assay type: biochemical; settings: 2.5 μM ATP; read-out: IC50, Activity Toward JAK1
T1 construct: wt human JAK1, catalytic site; purchased ThermoFisher
Summary of the method: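 Two-step HTRF KinEASE assay: compound, kinase/biotinylated TK substrate and ATP were incubated at least 30 min at room temperature. Antibody plus streptavidin-XL665 was then added and plates were read after 60 min. Inhibition was derived from emission ratios according to the kit protocol.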

[2] = target: T2, wt human TYK2, catalytic site (Homo sapiens, UniProt P29597); test: HTRF KinEASE assay, TYK2; assay type: biochemical; settings: 1 μM ATP; read-out: IC50, Activity Toward TYK2
T2 construct: wt human TYK2, catalytic site; purchased SignalChem
T2 sequence (P29597 897-1176 limits assumed): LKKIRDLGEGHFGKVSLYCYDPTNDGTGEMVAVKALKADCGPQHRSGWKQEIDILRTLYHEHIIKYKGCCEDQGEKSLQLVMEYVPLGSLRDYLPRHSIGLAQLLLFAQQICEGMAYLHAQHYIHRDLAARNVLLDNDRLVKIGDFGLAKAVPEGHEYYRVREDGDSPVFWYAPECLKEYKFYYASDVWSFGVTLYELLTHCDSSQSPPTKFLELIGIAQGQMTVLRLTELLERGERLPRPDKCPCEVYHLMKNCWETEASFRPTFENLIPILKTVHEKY
Summary of the method: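 HTRF KinEASE-TK readout with 1 μM biotinylated TK substrate in 1× kinase buffer, ≥30 min at room temperature, then antibody/streptavidin-XL665 detection for 60 min. TYK2 at 2 nM with 1 μM ATP; JAK2 at 1 nM with 100 μM ATP. Analysis uses emission ratios.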

T1 sequence (P23458 875-1153 limits assumed): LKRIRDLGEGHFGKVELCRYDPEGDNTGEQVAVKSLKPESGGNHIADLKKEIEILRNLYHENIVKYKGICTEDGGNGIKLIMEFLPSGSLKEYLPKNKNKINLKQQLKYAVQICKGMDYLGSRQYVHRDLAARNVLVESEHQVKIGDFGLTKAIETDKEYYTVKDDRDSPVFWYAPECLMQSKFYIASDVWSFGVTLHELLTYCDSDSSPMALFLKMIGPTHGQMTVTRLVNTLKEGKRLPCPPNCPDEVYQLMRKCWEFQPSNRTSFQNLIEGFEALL

IC50 [1]	IC50 [2]	SMILES
10 to 100 nM	10 to 100 nM	CN1CCn2c(nnc2-c2ccc(Nc3cn(-c4c(Cl)cccc4Cl)nc3C(N)=O)cc2)C1 [compound 269, 1-(2,6-dichlorophenyl)-4-((4-(7-methyl-5,6,7,8-tetrahydro-[1,2,4]triazolo[4,3-a]pyrazin-3-yl)phenyl)amino)-1H-pyrazole-3-carboxamide]
< 10 nM	10 to 100 nM	CN(C)C1CCN(C(=O)c2ccc(Nc3nn(-c4c(Cl)cccc4Cl)nc3C(N)=O)nc2)CC1 [compound 149, 2-(2,6-dichlorophenyl)-5-((5-(4-(dimethylamino)piperidine-1-carbonyl)pyridin-2-yl)amino)-2H-1,2,3-triazole-4-carboxamide]
100 to 1000 nM	10 to 100 nM	CN1CCN(C(=O)c2ccc(Nc3cn(-c4c(Cl)cccc4Cl)nc3C(N)=O)nc2)CC1 [compound 370, 1-(2,6-dichlorophenyl)-4-((5-(4-methylpiperazine-1-carbonyl)pyridin-2-yl)amino)-1H-pyrazole-3-carboxamide]
10 to 100 nM	100 to 1000 nM	CCn1ncnc1-c1ccc(Nc2cn(-c3c(Cl)cccc3Cl)nc2C(N)=O)nc1 [compound 431, 1-(2,6-dichlorophenyl)-4-((5-(1-ethyl-1H-1,2,4-triazol-5-yl)pyridin-2-yl)amino)-1H-pyrazole-3-carboxamide]
100 to 1000 nM	100 to 1000 nM	Cn1cc(Nc2cn(-c3c(Cl)cccc3Cl)nc2C(N)=O)nn1 [compound 380, 1-(2,6-dichlorophenyl)-4-((1-methyl-1H-1,2,3-triazol-4-yl)amino)-1H-pyrazole-3-carboxamide]
100 to 1000 nM	100 to 1000 nM	NC(=O)c1nn(-c2c(Cl)cccc2Cl)cc1Nc1ccc(C(=O)N2CC(F)C2)cn1 [compound 449, 1-(2,6-dichlorophenyl)-4-((5-(3-fluoroazetidine-1-carbonyl)pyridin-2-yl)amino)-1H-pyrazole-3-carboxamide]
100 to 1000 nM	100 to 1000 nM	CC(C)Oc1ccc(Nc2cn(-c3c(Cl)cccc3Cl)nc2C(N)=O)cc1 [compound 261, 1-(2,6-dichlorophenyl)-4-((4-isopropoxyphenyl)amino)-1H-pyrazole-3-carboxamide]
10 to 100 nM	10 to 100 nM	NC(=O)c1nn(-c2c(Cl)cccc2Cl)cc1Nc1cnn(CC(=O)N2CCS(=O)(=O)CC2)c1 [compound 469, 1-(2,6-dichlorophenyl)-4-((1-(2-(1,1-dioxidothiomorpholino)-2-oxoethyl)-1H-pyrazol-4-yl)amino)-1H-pyrazole-3-carboxamide]
100 to 1000 nM	< 10 nM	CCc1nc(C(F)(F)F)nn1-c1ccc(Nc2cn(-c3c(Cl)cccc3Cl)nc2C(N)=O)cc1 [compound 277, 1-(2,6-dichlorophenyl)-4-((4-(5-ethyl-3-(trifluoromethyl)-1H-1,2,4-triazol-1-yl)phenyl)amino)-1H-pyrazole-3-carboxamide]
100 to 1000 nM	10 to 100 nM	CN(C)[C@H]1CCN(C(=O)c2ccc(Nc3cn(-c4c(Cl)cccc4Cl)nc3C(N)=O)nc2)C1 [compound 366, (S)-1-(2,6-dichlorophenyl)-4-((5-(3-(dimethylamino)pyrrolidine-1-carbonyl)pyridin-2-yl)amino)-1H-pyrazole-3-carboxamide]
10 to 100 nM	10 to 100 nM	Cn1nnnc1-c1ccc(Nc2cn(-c3c(Cl)cccc3Cl)nc2C(N)=O)nc1 [compound 445, 1-(2,6-dichlorophenyl)-4-((5-(1-methyl-1H-tetrazol-5-yl)pyridin-2-yl)amino)-1H-pyrazole-3-carboxamide]
100 to 1000 nM	10 to 100 nM	NC(=O)c1nn(-c2c(Cl)cccc2Cl)cc1Nc1ccc(C(=O)N2CC[C@@H](N3CCCC3)C2)nc1 [compound 356, (R)-4-((6-([1,3′-bipyrrolidine]-1′-carbonyl)pyridin-3-yl)amino)-1-(2,6-dichlorophenyl)-1H-pyrazole-3-carboxamide]
100 to 1000 nM	100 to 1000 nM	NC(=O)c1nn(-c2c(Cl)cccc2Cl)cc1Nc1ccc(N2CCOCC2)cn1 [compound 428, 1-(2,6-dichlorophenyl)-4-((5-morpholinopyridin-2-yl)amino)-1H-pyrazole-3-carboxamide]
100 to 1000 nM	100 to 1000 nM	Cc1c(C#N)cnn1-c1ccc(Nc2cn(-c3c(Cl)cccc3Cl)nc2C(N)=O)cc1 [compound 253, 4-((4-(4-cyano-5-methyl-1H-pyrazol-1-yl)phenyl)amino)-1-(2,6-dichlorophenyl)-1H-pyrazole-3-carboxamide]
10 to 100 nM	100 to 1000 nM	Cn1cc(Nc2cn(-c3c(Cl)cccc3Cl)nc2C(N)=O)cn1 [compound 377, 1-(2,6-dichlorophenyl)-4-((1-methyl-1H-pyrazol-4-yl)amino)-1H-pyrazole-3-carboxamide]
10 to 100 nM	< 10 nM	CN1CCC(N(C)C(=O)c2ccc(Nc3cn(-c4c(Cl)cc(F)cc4Cl)nc3C(N)=O)cc2)CC1 [compound 413, 1-(2,6-dichloro-4-fluorophenyl)-4-((4-(methyl(1-methylpiperidin-4-yl)carbamoyl)phenyl)amino)-1H-pyrazole-3-carboxamide]
100 to 1000 nM	10 to 100 nM	NC(=O)c1nn(-c2c(Cl)cccc2Cl)cc1Nc1ccc(C(=O)N2CCN(C3CC3)CC2)nc1 [compound 364, 4-((6-(4-cyclopropylpiperazine-1-carbonyl)pyridin-3-yl)amino)-1-(2,6-dichlorophenyl)-1H-pyrazole-3-carboxamide]
10 to 100 nM	100 to 1000 nM	NC(=O)c1nn(-c2c(Cl)cccc2Cl)nc1Nc1ccc(-n2nncc2C(F)(F)F)cn1 [compound 157, 2-(2,6-dichlorophenyl)-5-((5-(5-(trifluoromethyl)-1H-1,2,3-triazol-1-yl)pyridin-2-yl)amino)-2H-1,2,3-triazole-4-carboxamide]
10 to 100 nM	10 to 100 nM	Cn1nnnc1-c1ccc(Nc2nn(-c3c(Cl)cccc3Cl)nc2C(N)=O)nc1 [compound 158, 2-(2,6-dichlorophenyl)-5-((5-(1-methyl-1H-tetrazol-5-yl)pyridin-2-yl)amino)-2H-1,2,3-triazole-4-carboxamide]
10 to 100 nM	10 to 100 nM	NC(=O)c1nn(-c2c(Cl)cccc2Cl)cc1Nc1ccc(C(=O)N2CCOCC2)nc1 [compound 365, 1-(2,6-dichlorophenyl)-4-((6-(morpholine-4-carbonyl)pyridin-3-yl)amino)-1H-pyrazole-3-carboxamide]
100 to 1000 nM	10 to 100 nM	CC1(C)CN(C(=O)c2ccc(Nc3nn(-c4c(Cl)cccc4Cl)nc3C(N)=O)nc2)C1 [compound 165, 2-(2,6-dichlorophenyl)-5-((5-(3,3-dimethylazetidine-1-carbonyl)pyridin-2-yl)amino)-2H-1,2,3-triazole-4-carboxamide]
10 to 100 nM	< 10 nM	N#Cc1cccc(Cl)c1-n1cc(Nc2ccc(C(=O)N3CCOCC3)cc2)c(C(N)=O)n1 [compound 458, 1-(2-chloro-6-cyanophenyl)-4-((4-(morpholine-4-carbonyl)phenyl)amino)-1H-pyrazole-3-carboxamide]
100 to 1000 nM	10 to 100 nM	NC(=O)c1nn(-c2c(Cl)cccc2Cl)cc1Nc1ccc(-c2nnc3n2CCCC3)cc1 [compound 55, 1-(2,6-dichlorophenyl)-4-((4-(5,6,7,8-tetrahydro-[1,2,4]triazolo[4,3-a]pyridin-3-yl)phenyl)amino)-1H-pyrazole-3-carboxamide]
10 to 100 nM	10 to 100 nM	NC(=O)c1nn(-c2c(Cl)cccc2Cl)nc1Nc1ccc(C(=O)N2CC(F)C2)cn1 [compound 135, 2-(2,6-dichlorophenyl)-5-((5-(3-fluoroazetidine-1-carbonyl)pyridin-2-yl)amino)-2H-1,2,3-triazole-4-carboxamide]
100 to 1000 nM	100 to 1000 nM	NC(=O)c1nn(-c2c(Cl)cccc2Cl)cc1Nc1cnc(C(=O)N2CCOCC2)cn1 [compound 401, 1-(2,6-dichlorophenyl)-4-((5-(morpholine-4-carbonyl)pyrazin-2-yl)amino)-1H-pyrazole-3-carboxamide]
10 to 100 nM	10 to 100 nM	NC(=O)c1nn(-c2c(Cl)cccc2Cl)cc1Nc1ccc(C(=O)N2CCOCC2)cn1 [compound 74, 1-(2,6-dichlorophenyl)-4-((5-(morpholine-4-carbonyl)pyridin-2-yl)amino)-1H-pyrazole-3-carboxamide]
100 to 1000 nM	10 to 100 nM	NC(=O)c1nn(-c2c(Cl)cccc2Cl)cc1Nc1ccc(C(=O)N2CCCC2)nc1 [compound 358, 1-(2,6-dichlorophenyl)-4-((6-(pyrrolidine-1-carbonyl)pyridin-3-yl)amino)-1H-pyrazole-3-carboxamide]

SMILES	IC50 [1]	IC50 [2]
NC(=O)c1nn(-c2c(Cl)cccc2Cl)cc1Nc1ccc(-c2nnc3cncc(Cl)n23)nc1 [compound 447, 4-((6-(5-chloro-[1,2,4]triazolo[4,3-a]pyrazin-3-yl)pyridin-3-yl)amino)-1-(2,6-dichlorophenyl)-1H-pyrazole-3-carboxamide]	10 to 100 nM	10 to 100 nM
